# Test: recombinant barcode read abundance after kanamycin selection (control-corrected) (log10(CPM+1)); higher = more efficient recombination; sequences stand for … in AGTGCAGAGAAAATCGGCCAGTTTTCTCTGCCTGCAGTCCGCATGCCGT…AGATTTATGCAGCGGACTGCCTTTCTCCCAAAGTGATAAACCGGACAGTATCATGGACCGGTTTTCCCGGTAATCCGTATTTGCAAGGTTGGTTTCACT; site = the 11-nt target
# How it was run: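 IS621 bridge RNA target-binding loops were paired with targets in a pooled library tested in E. coli. After co-electroporation with a donor plasmid, cells were plated in two replicates on chloramphenicol/ampicillin LB agar (control) and on chloramphenicol/ampicillin/kanamycin carrying 0.1 mM IPTG. Barcodes at recombinant junctions were counted as counts per million, averaged and control-corrected to give recombination efficiency. Values are log10(CPM+1).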
# 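Further: IS621 recombinase and bridge RNA in Escherichia coli cells.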
row,Sequence,recombinant barcode read abundance (log10)
1,CATAGTCCTTGGGTTCTAACCTGTTGCCT (site CAGAGTCCTAA),0.0573
2,CATAGTCCTTGGGTTCTAACCTGTTGCCT (site CATAGTCCTAG),0.605
3,CATATAGCTTGGGTTCTAACCTGTTGCAT (site CATATAGCTAT),0.693
4,CATATAGCTTGGGTTCTAACCTGTTGCAT (site GATCTAGCTAT),0.667
5,CATCAAGCTTGGGTTCTAACCTGTTGCCT (site CATCAAGCTAG),0.929
6,CATCAAGCTTGGGTTCTAACCTGTTGCCT (site GTATGGACTTT),0.0466
7,CATCCGACTTGGGTTCTAACCTGTTGCTC (site AGATTTCCTAT),0.122
8,CATCCGACTTGGGTTCTAACCTGTTGCTC (site CATCCGACTGA),0.193
9,CATCCGCCTTGGGTTCTAACCTGTTGCCT (site CATCCGACTAG),0.0105
10,CATCCGCCTTGGGTTCTAACCTGTTGCCT (site CATCCGCCTAG),1.11
11,CATCCGCCTTGGGTTCTAACCTGTTGCCT (site CATCCGGCTAG),0.0751
12,CATCCGCCTTGGGTTCTAACCTGTTGCCT (site CATCCGTCTAG),0.0465
13,CATCGAGCTTGGGTTCTAACCTGTTGCCG (site CAACGAGCTCG),0.228
14,CATCGAGCTTGGGTTCTAACCTGTTGCCG (site CACCGAGCTCG),0.43
15,CATCGAGCTTGGGTTCTAACCTGTTGCCG (site CAGCGAGCTCG),0.236
16,CATCGAGCTTGGGTTCTAACCTGTTGCCG (site CATCGAGCTCG),0.283
17,CATCGCTCTTGGGTTCTAACCTGTTGCTT (site CACCGTTCTAA),0.0858
18,CATCGCTCTTGGGTTCTAACCTGTTGCTT (site CATCGCTCTAA),0.0993
19,CATGCGACTTGGGTTCTAACCTGTTGCTG (site CATGCGACTCA),0.459
20,CATGCGACTTGGGTTCTAACCTGTTGCTG (site CATGCTACTGA),0.351
21,CATGCGCCTTGGGTTCTAACCTGTTGCGG (site CATGCGCCTCC),1.26
22,CATGCGCCTTGGGTTCTAACCTGTTGCGG (site CATGTGTCTCC),0.0282
23,CATGCTTCTTGGGTTCTAACCTGTTGCCT (site AGAAAAGCTTT),0.167
24,CATGCTTCTTGGGTTCTAACCTGTTGCCT (site CATGCTTCTAG),0.526
25,CATGGGACTTGGGTTCTAACCTGTTGCAT (site CATGGGACTAT),2.06
26,CATGGGACTTGGGTTCTAACCTGTTGCAT (site GGCAAACCTCC),0.202

row,Sequence,recombinant barcode read abundance (log10)
1,CATGTGTCTTGGGTTCTAACCTGTTGCGG (site CATGCGCCTCC),0.0713
2,CATGTGTCTTGGGTTCTAACCTGTTGCGG (site CATGTGTCTCC),2.69
3,CATTATTCTTGGGTTCTAACCTGTTGCCT (site CATAATTCTAG),0.04
4,CATTATTCTTGGGTTCTAACCTGTTGCCT (site CATCATTCTAG),0.0417
5,CATTATTCTTGGGTTCTAACCTGTTGCCT (site CATGATTCTAG),0.071
6,CATTATTCTTGGGTTCTAACCTGTTGCCT (site CATTATTCTAG),0.0377
7,CATTCCACTTGGGTTCTAACCTGTTGCCT (site CATTCCACTAG),0.369
8,CATTCCACTTGGGTTCTAACCTGTTGCCT (site TCGCGTGCTCC),0.0105
9,CATTCTGCTTGGGTTCTAACCTGTTGCCT (site CAATCTGCTAG),0.136
10,CATTCTGCTTGGGTTCTAACCTGTTGCCT (site CACTCTGCTAG),0.0741
11,CATTCTGCTTGGGTTCTAACCTGTTGCCT (site CAGTCTGCTAG),0.136
12,CATTCTGCTTGGGTTCTAACCTGTTGCCT (site CATTCTGCTAG),0.12
13,CATTGGACTTGGGTTCTAACCTGTTGCCT (site CAATGGACTAG),0.112
14,CATTGGACTTGGGTTCTAACCTGTTGCCT (site CACTGGACTAG),0.0737
15,CATTGGACTTGGGTTCTAACCTGTTGCCT (site CAGTGGACTAG),0.084
16,CATTGGACTTGGGTTCTAACCTGTTGCCT (site CATTGGACTAG),0.662
17,CATTGTCCTTGGGTTCTAACCTGTTGCGT (site CATTATCCTAC),0.15
18,CATTGTCCTTGGGTTCTAACCTGTTGCGT (site CATTGTCCTAC),1.38
19,CCAAAGGCTTGGGTTCTAACCTGTTGCCT (site CCAAAGGCTAG),0.656
20,CCAAAGGCTTGGGTTCTAACCTGTTGCCT (site CCTAATGCTAG),0.412
21,CCAACACCTTGGGTTCTAACCTGTTGCCT (site CCAACACCTAG),0.465
22,CCAACACCTTGGGTTCTAACCTGTTGCCT (site CCAAGTCCTAG),0.0965
23,CCAAGCTCTTGGGTTCTAACCTGTTGCCT (site CCAAGCACTAG),0.0905
24,CCAAGCTCTTGGGTTCTAACCTGTTGCCT (site CCAAGCCCTAG),0.177
25,CCAAGCTCTTGGGTTCTAACCTGTTGCCT (site CCAAGCGCTAG),0.214
26,CCAAGCTCTTGGGTTCTAACCTGTTGCCT (site CCAAGCTCTAG),1.32

row,Sequence,recombinant barcode read abundance (log10)
1,CCAAGGCCTTGGGTTCTAACCTGTTGCCT (site ACAAGGCCTAG),0.161
2,CCAAGGCCTTGGGTTCTAACCTGTTGCCT (site CCAAGGCCTAG),0.0291
3,CCAAGGCCTTGGGTTCTAACCTGTTGCCT (site GCAAGGCCTAG),0.28
4,CCAAGGCCTTGGGTTCTAACCTGTTGCCT (site TCAAGGCCTAG),0.0686
5,CCAAGTCCTTGGGTTCTAACCTGTTGCCT (site CCAACACCTAG),0.0147
6,CCAAGTCCTTGGGTTCTAACCTGTTGCCT (site CCAAGTCCTAG),0.892
7,CCAATCTCTTGGGTTCTAACCTGTTGCCT (site CCAATCTCTAG),0.276
8,CCAATCTCTTGGGTTCTAACCTGTTGCCT (site CGTATCTCTAG),0.0477
9,CCACCTTCTTGGGTTCTAACCTGTTGCCT (site AGTTGGCCTTC),0.161
10,CCACCTTCTTGGGTTCTAACCTGTTGCCT (site CCACCTTCTAG),0.0666
11,CCACGAACTTGGGTTCTAACCTGTTGCTT (site CCAAGTACTAA),0
12,CCACGAACTTGGGTTCTAACCTGTTGCTT (site CCACGAACTAA),0.0915
13,CCACGGACTTGGGTTCTAACCTGTTGCCT (site CCAAGGACTAG),0.143
14,CCACGGACTTGGGTTCTAACCTGTTGCCT (site CCACGGACTAG),0.651
15,CCACGGACTTGGGTTCTAACCTGTTGCCT (site CCAGGGACTAG),0.129
16,CCACGGACTTGGGTTCTAACCTGTTGCCT (site CCATGGACTAG),0.0265
17,CCATACTCTTGGGTTCTAACCTGTTGCTT (site CCATACTCTAA),1.17
18,CCATACTCTTGGGTTCTAACCTGTTGCTT (site CCATGGTCTAA),0
19,CCATCCACTTGGGTTCTAACCTGTTGCCT (site CCATCCACTAG),0.318
20,CCATCCACTTGGGTTCTAACCTGTTGCCT (site TCATCCGCTAG),0.0523
21,CCATGAACTTGGGTTCTAACCTGTTGCCA (site CCATCAACTAG),0.131
22,CCATGAACTTGGGTTCTAACCTGTTGCCA (site CCATGAACTTG),0.0609
23,CCGATCCCTTGGGTTCTAACCTGTTGCCT (site CAGATCCCTAG),0.348
24,CCGATCCCTTGGGTTCTAACCTGTTGCCT (site CCGATCCCTAG),1.4
25,CCGATCCCTTGGGTTCTAACCTGTTGCCT (site CGGATCCCTAG),0.213

# From the supplement of paper PMC11208160
